Data: ChEMBL document CHEMBL2440033, “Synthesis of amino-hydroxy-benzocycloheptenones as potent, selective, non-peptidic dinuclear zinc metalloaminopeptidase inhibitors” (Bioorg Med Chem, 2013)

How the values were obtained:
[1] = molecular target: Bacterial leucyl aminopeptidase (Vibrio proteolyticus, UniProt Q01693); experiment: Inhibition of Aeromonas proteolytica leucyl aminopeptidase using L-leucine para-notroanilide as substrate assessed as release of para-nitroaniline by Dixon plot analysis
Chain of Bacterial leucyl aminopeptidase (Q01693 whole entry): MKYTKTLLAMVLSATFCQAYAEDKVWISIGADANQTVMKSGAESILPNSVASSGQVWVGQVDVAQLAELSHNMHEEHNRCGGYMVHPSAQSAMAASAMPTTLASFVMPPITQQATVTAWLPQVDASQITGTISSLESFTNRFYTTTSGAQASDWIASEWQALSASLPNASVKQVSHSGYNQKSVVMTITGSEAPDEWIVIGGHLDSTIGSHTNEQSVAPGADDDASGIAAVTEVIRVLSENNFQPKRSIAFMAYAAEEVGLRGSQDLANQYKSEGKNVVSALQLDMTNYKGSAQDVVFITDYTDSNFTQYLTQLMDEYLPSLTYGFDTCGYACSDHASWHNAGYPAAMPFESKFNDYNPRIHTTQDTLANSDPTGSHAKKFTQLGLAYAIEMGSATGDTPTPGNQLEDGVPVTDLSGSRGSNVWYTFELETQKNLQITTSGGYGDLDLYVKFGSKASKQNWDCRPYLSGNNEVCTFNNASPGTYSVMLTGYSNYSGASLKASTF

Aminopeptidase N = molecular target: T1, Aminopeptidase N (Sus scrofa, UniProt P15145); experiment: Inhibition of porcine kidney APN using L-leucine para-notroanilide as substrate assessed as release of para-nitroaniline by Dixon plot analysis
T1 sequence (P15145 whole entry): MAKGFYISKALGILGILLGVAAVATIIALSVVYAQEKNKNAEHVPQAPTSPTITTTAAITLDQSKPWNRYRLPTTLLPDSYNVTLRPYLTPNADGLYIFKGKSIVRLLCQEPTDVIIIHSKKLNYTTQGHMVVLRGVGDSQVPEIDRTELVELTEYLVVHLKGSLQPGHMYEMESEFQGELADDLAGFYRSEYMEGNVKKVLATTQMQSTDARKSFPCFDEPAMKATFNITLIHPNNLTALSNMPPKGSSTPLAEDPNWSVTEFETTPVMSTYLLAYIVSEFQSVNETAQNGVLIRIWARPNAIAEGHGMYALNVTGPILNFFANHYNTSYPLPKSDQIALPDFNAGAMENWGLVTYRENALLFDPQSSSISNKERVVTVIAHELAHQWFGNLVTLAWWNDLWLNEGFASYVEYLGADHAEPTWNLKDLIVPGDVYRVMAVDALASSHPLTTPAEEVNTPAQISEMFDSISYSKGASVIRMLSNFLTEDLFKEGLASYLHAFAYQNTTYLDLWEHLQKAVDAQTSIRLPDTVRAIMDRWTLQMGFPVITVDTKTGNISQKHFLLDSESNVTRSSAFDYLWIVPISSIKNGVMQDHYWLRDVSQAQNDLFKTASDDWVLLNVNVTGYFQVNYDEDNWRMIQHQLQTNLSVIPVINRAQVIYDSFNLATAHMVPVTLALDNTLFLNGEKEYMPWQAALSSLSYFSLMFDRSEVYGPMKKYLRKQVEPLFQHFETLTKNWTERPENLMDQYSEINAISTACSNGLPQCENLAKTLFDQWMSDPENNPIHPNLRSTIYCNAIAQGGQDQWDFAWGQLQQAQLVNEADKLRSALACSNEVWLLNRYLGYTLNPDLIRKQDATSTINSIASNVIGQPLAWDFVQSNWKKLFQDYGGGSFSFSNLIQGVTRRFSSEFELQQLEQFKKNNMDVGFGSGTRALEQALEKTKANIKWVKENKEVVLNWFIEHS

## NC1CCc2ccccc2CC1=O (stereo unspecified)
[1]
  IC50: 900 µM

## N[C@@H]1[C@H](O)Cc2ccccc2C[C@@H]1O
Aminopeptidase N
  IC50: > 1000 µM
[1]
  Ki: 78 µM

## N[C@@H]1C(=O)Cc2ccccc2C[C@@H]1O (racemic)
Aminopeptidase N
  IC50: > 1000 µM
[1]
  IC50: > 1000 µM

## N[C@H]1Cc2ccccc2C[C@@H](O)C1=O (racemic)
Aminopeptidase N
  IC50: > 100 µM
[1]
  Ki: 4 µM

## N[C@H]1Cc2ccccc2C[C@H](O)C1=O (racemic)
Aminopeptidase N
  Ki: 42 µM
[1]
  Ki: 24 µM

## N[C@H]1Cc2ccccc2CC(=O)[C@H]1O (racemic)
Aminopeptidase N
  IC50: > 1000 µM
[1]
  Ki: 0.01 µM
